Results from patent publication US20260049071A1, “PROTEIN TYROSINE KINASE INHIBITOR AND MEDICAL USE THEREOF” (BEYANG THERAPEUTICS CO., LTD., priority 2022, published 2026).

What was measured:
KDR (VEGFR2) = KDR (VEGFR2) (Homo sapiens (Human), UniProt P35968); test: Kinase inhibition, Mobility Shift Assay (VEGFR2); format: biochemical
Method in brief: (§1)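 Mobility shift assay: each kinase preincubated 10 min at room temperature with compound, then reacted with FAM-labeled peptide, MgCl2 and ATP at 28° C. for varying times. Substrate-to-product conversion read on Caliper; % inhibition normalised to no-kinase and DMSO controls, and IC50 fitted.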

EGFR = EGFR (Homo sapiens (Human), UniProt P00533); test: Kinase inhibition, Mobility Shift Assay (EGFR); format: biochemical
Method in brief: as §1

[1] = target: VEGFR2 autophosphorylation (pVEGFR2) in HUVEC cells (Homo sapiens (Human), UniProt P35968); test: Inhibition of VEGF-induced VEGFR2 autophosphorylation in HUVEC cells (ELISA); format: cell-based; conditions: 50 ng/ml human VEGF, compound 1 h
Excerpt: Vascular endothelial growth factor receptor 2 (VEGFR2) is a primary receptor for VEGF-induced endothelial cell signaling. After ligand binding, VEGFR2 is autophosphorylated and activated. The main function of signaling from VEGFR2 is to induce vascularization during development and after tissue injury, and to bypass blocked blood vessels. Pathologically, VEGF and VEGFR2 are involved in tumor angiogenesis and vascular leakage. They are considered to be main participants in many different cancers and ocular diseases that accompany pathological neovascularization. This assay measured the ability of the compounds to inhibit VEGF-induced VEGFR2 autophosphorylation (pVEGFR2) in HUVEC cells by using ELISA.
Culture cells in a cell culture flask to reach a fusion degree of 60%-80% before cell inoculation. Dilute the cell suspension to […] with a pre-warmed complete medium. Add 80 μL of the cell suspension to all wells of a 96-well cell plate (Corning-3599); and incubate the plate overnight at 37° C. in the presence of 5% CO2. Dissolve the compound powder to 10 mM with DMSO and store it in a nitrogen cabinet. Compound dilution plate: Add a reference compound Ponatinib or a compound to be tested to a 96 V-well plate (Axygen-WIpp 2280) at concentrations achieved as follows: performing 3-fold gradient dilution starting from 5 mM (5 μL of 10 mM compound solution plus 5 μL of DMSO) for a total of 8 concentration points. […] Transfer 20 μL of the diluted compound from the intermediate plate to a cell plate. Then, incubate the cell plate for 1 h at 37° C. in the presence of 5% CO2. After the compound was treated for 1 h, add 25 μL of 250 ng/ml human VEGF at a final concentration of 50 ng/ml to a 96-well plate; and incubate the plate for 5 min at 37° C. in the presence of 5% CO2, centrifuge the plate for 10 min at 3,000 rpm, remove the medium and wash the cells once with 300 μL of pre-chilled DPBS per well. Then, centrifuge the plate for 10 min at 4,000 rpm, remove DPBS, and add 110 μL of pre-chilled 1× cell lysis buffer per well to the 96-well plate. Shake the plate for 40 min at 4° C. Then, freeze the plate in a refrigerator at −80° C. On the next day, remove the plate from the refrigerator at −80° C., thaw the plate, centrifuge the plate for 10 min at 3500 rpm, and add 100 μL of the supernatant per well to an ELISA plate. Seal the plate and incubate it for 2 h at 37° C. Wash the wells 4 times with 1× wash buffer. Add 100 μL of recombinant detection antibody per well. Seal the plate, incubate the plate for 1 h at 37° C., and repeat the step of plate washing. Add 100 μL of secondary antibody per well. Seal the plate, incubate the plate for 30 min at 37° C., and repeat the step of plate washing. Add 100 μL of TMB (protected from light) per well. Seal the plate, incubate the plate for 30 min at 37° C., and add 100 μL of the stop solution per well. Gently shake for 30 sec, measure the absorbance with a SpectraMax® 340 PC 384 Absorbance Microplate Reader within 30 min, and read an optical density value at 450 nm. Conduct data analysis using XL Fit software:
Conduct curve fitting using the 4 Parameter Logistic Model or Sigmoidal Dose-Response Model:
X indicating the log value of compound concentration, Y indicating the inhibition ratio (% inhibition), Top indicating the readout of the negative control wells, and bottom indicating the readout of the positive control well.

melanin = test: Binding capacity of compounds to melanin; format: in vitro ADME; conditions: Sepia officinalis (cuttlefish), melanin suspension (1 mg/mL); 1 mg/mL melanin suspension in PBS pH 7.4, 2 μM compound, 2 h at 37° C.; read-out: Fu % (percentage of free drug, not bound to melanin)
Method in brief: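 Compound at 2 μM final incubated with 1 mg/mL Sepia melanin suspension in PBS pH 7.4 for 2 h at 37 °C with shaking; blank control in PBS with 0.1% BSA. Supernatant concentrations measured by LC-MS/MS; bound fraction from melanin versus control samples, free fraction as 100 − Fb.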

Sequence of VEGFR2 autophosphorylation (pVEGFR2) in HUVEC cells (P35968 20-1356): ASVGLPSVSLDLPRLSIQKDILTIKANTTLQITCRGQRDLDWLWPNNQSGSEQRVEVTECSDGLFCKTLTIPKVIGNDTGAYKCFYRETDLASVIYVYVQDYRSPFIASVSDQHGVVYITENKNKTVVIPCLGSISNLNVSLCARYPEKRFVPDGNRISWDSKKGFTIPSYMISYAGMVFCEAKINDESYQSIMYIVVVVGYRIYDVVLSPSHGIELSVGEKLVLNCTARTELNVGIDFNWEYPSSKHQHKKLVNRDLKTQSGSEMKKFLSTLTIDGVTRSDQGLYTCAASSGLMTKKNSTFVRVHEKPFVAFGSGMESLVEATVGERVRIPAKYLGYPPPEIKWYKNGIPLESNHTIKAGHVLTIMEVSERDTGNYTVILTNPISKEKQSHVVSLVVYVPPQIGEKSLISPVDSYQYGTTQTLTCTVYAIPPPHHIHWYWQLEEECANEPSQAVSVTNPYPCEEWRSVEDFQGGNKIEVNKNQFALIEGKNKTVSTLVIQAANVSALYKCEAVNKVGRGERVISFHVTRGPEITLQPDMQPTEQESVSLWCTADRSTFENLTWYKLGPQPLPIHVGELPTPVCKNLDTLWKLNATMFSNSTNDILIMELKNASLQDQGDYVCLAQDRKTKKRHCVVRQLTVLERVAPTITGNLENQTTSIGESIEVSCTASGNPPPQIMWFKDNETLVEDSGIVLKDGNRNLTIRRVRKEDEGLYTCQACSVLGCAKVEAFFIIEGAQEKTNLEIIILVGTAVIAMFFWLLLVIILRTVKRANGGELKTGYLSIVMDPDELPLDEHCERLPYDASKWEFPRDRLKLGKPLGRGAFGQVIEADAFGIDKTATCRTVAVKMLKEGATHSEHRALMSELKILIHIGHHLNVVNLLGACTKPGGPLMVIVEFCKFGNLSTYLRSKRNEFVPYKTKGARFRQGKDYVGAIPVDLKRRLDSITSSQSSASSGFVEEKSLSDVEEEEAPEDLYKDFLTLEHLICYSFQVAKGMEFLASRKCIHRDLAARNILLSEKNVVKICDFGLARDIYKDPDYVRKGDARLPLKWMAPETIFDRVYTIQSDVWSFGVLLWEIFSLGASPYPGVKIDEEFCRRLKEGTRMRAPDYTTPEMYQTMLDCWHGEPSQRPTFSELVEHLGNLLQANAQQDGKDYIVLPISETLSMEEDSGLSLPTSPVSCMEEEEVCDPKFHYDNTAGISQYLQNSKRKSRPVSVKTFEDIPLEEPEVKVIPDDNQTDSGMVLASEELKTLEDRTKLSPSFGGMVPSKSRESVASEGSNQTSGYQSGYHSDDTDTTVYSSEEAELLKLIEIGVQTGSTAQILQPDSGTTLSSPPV
Sequence of KDR (VEGFR2) (P35968 790-1356): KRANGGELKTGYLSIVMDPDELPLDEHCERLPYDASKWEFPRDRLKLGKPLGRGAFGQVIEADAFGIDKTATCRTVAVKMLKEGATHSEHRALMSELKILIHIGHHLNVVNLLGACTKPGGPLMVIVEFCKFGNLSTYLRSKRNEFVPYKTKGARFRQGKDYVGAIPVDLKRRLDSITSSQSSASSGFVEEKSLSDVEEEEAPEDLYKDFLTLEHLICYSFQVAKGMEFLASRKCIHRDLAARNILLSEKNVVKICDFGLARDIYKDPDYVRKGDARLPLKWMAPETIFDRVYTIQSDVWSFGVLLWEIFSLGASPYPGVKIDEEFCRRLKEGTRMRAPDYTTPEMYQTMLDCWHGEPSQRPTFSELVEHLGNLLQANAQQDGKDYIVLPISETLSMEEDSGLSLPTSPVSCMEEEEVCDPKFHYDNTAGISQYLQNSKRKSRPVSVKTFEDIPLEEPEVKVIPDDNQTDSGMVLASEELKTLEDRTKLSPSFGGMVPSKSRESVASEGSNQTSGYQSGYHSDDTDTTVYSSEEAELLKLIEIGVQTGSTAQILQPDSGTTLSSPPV
Sequence of EGFR (P00533 25-1210): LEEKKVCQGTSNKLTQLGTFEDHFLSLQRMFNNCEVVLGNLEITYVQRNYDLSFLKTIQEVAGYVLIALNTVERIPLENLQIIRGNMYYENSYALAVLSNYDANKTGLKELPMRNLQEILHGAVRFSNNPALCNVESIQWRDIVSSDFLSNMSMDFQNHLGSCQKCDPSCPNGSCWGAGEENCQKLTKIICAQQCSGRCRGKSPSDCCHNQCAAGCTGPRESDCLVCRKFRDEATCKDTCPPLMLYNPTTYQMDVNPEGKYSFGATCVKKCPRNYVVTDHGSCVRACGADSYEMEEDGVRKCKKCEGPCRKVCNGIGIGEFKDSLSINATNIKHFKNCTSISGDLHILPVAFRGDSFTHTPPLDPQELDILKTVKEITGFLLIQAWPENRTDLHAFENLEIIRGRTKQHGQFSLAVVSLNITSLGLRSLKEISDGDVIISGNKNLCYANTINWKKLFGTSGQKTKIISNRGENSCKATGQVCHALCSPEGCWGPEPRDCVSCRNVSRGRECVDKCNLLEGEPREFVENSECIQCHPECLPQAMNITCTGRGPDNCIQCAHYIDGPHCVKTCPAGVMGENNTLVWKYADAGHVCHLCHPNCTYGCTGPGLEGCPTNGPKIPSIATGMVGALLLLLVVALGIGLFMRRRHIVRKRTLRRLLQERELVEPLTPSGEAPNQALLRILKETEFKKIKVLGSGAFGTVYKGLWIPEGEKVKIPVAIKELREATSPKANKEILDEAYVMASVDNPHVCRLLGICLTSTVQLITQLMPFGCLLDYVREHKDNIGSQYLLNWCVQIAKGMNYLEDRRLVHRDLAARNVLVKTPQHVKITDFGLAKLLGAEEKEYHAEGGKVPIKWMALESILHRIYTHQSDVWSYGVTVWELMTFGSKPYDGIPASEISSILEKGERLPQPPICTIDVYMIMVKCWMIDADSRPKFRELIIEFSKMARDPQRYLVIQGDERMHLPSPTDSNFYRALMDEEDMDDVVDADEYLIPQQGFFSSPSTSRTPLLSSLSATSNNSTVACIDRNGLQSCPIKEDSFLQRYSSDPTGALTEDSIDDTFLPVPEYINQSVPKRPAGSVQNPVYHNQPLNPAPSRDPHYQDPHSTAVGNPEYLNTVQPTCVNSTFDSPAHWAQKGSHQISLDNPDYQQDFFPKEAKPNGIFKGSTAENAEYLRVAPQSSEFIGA

| IC50 (KDR (VEGFR2)) [nM] | IC50 (EGFR) [nM] | IC50 [1] [nM] | fraction unbound at 2 h, 2 μM (melanin) | Compound |
| --- | --- | --- | --- | --- |
| ≤ 1 | 6000 to 60000 | ≤ 1 | > 0.05 | O=C(NC1CC1)c1ccccc1Sc1ccc2c(/C=C/c3ccc(CN4CCCC4)cn3)n[nH]c2c1 [Compound I-41, N-cyclopropyl-2-({3-[(E)-2-{5-[(pyrrolidin-1-yl)methyl]pyridin-2-yl}vinyl]-1H-indazol-6-yl}thio)benzamide] |
| ≤ 1 | > 60000 | ≤ 1 | 0.01 to 0.05 | CN1CCC(CCOc2ccc(/C=C/c3n[nH]c4cc(Sc5ccccc5C(=O)NC5CC5)ccc34)nc2)CC1 [Compound I-42, N-cyclopropyl-2-({3-[(E)-2-{5-[2-(1-methylpiperidin-4-yl)ethoxy]pyridin-2-yl}vinyl]-1H-indazol-6-yl}thio)benzamide] |
| ≤ 1 | 6000 to 60000 | ≤ 1 | 0.01 to 0.05 | O=C(NC1CC1)c1ccccc1Sc1ccc2c(/C=C/c3cnn(CCCN4CCCC4)c3)n[nH]c2c1 [Compound I-43, N-cyclopropyl-2-({3-[(E)-2-{1-[3-(pyrrolidin-1-yl)propyl]-1H-pyrazol-4-yl}vinyl]-1H-indazol-6-yl}thio)benzamide] |
| ≤ 1 | 6000 to 60000 | ≤ 1 | 0.01 to 0.05 | O=C(NC1CC1)c1ccccc1Sc1ccc2c(/C=C/c3ccc(CCN4CCCC4)cn3)n[nH]c2c1 [Compound I-55, N-cyclopropyl-2-({3-[(E)-2-{5-[2-(pyrrolidin-1-yl)ethyl]pyridin-2-yl}vinyl]-1H-indazol-6-yl}thio)benzamide] |
| ≤ 1 | 6000 to 60000 | ≤ 1 | 0.01 to 0.05 | O=C(NC1CC1)c1ccccc1Sc1ccc2c(/C=C/c3ccc(CCCN4CCCC4)cn3)n[nH]c2c1 [Compound I-59, N-cyclopropyl-2-({3-[(E)-2-{5-[3-(pyrrolidin-1-yl)propyl]pyridin-2-yl}vinyl]-1H-indazol-6-yl}thio)benzamide] |
| 1 to 10 | 6000 to 60000 | ≤ 1 | 0.01 to 0.05 | O=C(NC1CC1)c1ccccc1Sc1ccc2c(/C=C/c3cnn(CCN4CCCC4)c3)n[nH]c2c1 [Compound I-61, N-cyclopropyl-2-({3-[(E)-2-{1-[2-(pyrrolidin-1-yl)ethyl]-1H-pyrazol-4-yl}vinyl]-1H-indazol-6-yl}thio)benzamide] |
| 1 to 10 | 6000 to 60000 | ≤ 1 | > 0.05 | O=C(NC1CC1)c1cccc(F)c1Sc1ccc2c(/C=C/c3ccc(CN4CCCC4)cn3)n[nH]c2c1 [Compound I-67] |
| ≤ 1 | 6000 to 60000 | ≤ 1 | 0.01 to 0.05 | CCN(CC)Cc1ccc(/C=C/c2n[nH]c3cc(Sc4ccccc4C(=O)NC4CC4)ccc23)nc1 [Compound I-78, N-cyclopropyl-2-({3-[(E)-2-{5-[(diethylamino)methyl]pyridin-2-yl}vinyl]-1H-indazol-6-yl}thio)benzamide] |
| ≤ 1 | 6000 to 60000 | ≤ 1 | 0.01 to 0.05 | O=C(NC1CC1)c1cc(F)ccc1Sc1ccc2c(/C=C/c3ccc(CN4CCCC4)cn3)n[nH]c2c1 [Compound I-80, N-cyclopropyl-5-fluoro-2-({3-[(E)-2-{5-[(pyrrolidin-1-yl)methyl]pyridin-2-yl}vinyl]-1H-indazol-6-yl}thio)benzamide] |
| ≤ 1 | 6000 to 60000 | ≤ 1 | > 0.05 | CCN(CC)Cc1ccc(/C=C/c2n[nH]c3cc(Sc4cc(F)ccc4C(=O)NC4CC4)ccc23)nc1 [Compound I-83, N-cyclopropyl-2-({3-[(E)-2-{5-[(diethylamino)methyl]pyridin-2-yl}vinyl]-1H-indazol-6-yl}thio)-4-fluorobenzamide] |
| 1 to 10 | 6000 to 60000 | ≤ 1 | > 0.05 | CCN(CC)Cc1ccc(/C=C/c2n[nH]c3cc(Sc4ccc(F)cc4C(=O)NC4CC4)ccc23)nc1 [Compound I-84, N-cyclopropyl-2-({3-[(E)-2-{5-[(diethylamino)methyl]pyridin-2-yl}vinyl]-1H-indazol-6-yl}thio)-5-fluorobenzamide] |
| ≤ 1 | 6000 to 60000 | ≤ 1 | 0.01 to 0.05 | CCNC(=O)c1ccccc1Sc1ccc2c(/C=C/c3ccc(CN(CC)CC)cn3)n[nH]c2c1 [Compound I-86, 2-({3-[(E)-2-{5-[(diethylamino)methyl]pyridin-2-yl}vinyl]-1H-indazol-6-yl}thio)-N-ethylbenzamide] |
| 1 to 10 | 6000 to 60000 | ≤ 1 | 0.01 to 0.05 | CCN(CC)Cc1ccc(/C=C/c2n[nH]c3cc(Sc4ccccc4C(=O)NC)ccc23)nc1 [Compound I-90, 2-({3-[(E)-2-{5-[(diethylamino)methyl]pyridin-2-yl}vinyl]-1H-indazol-6-yl}thio)-N-methylbenzamide] |
| 1 to 10 | 6000 to 60000 | ≤ 1 | > 0.05 | CCN(CC)Cc1ccc(/C=C/c2n[nH]c3cc(Sc4ccccc4C(=O)NCC(F)(F)F)ccc23)nc1 [Compound I-100, 2-({3-[(E)-2-{5-[(diethylamino)methyl]pyridin-2-yl}vinyl]-1H-indazol-6-yl}thio)-N-(2,2,2-trifluoroethyl)benzamide] |
| ≤ 1 | > 60000 | ≤ 1 | > 0.05 | CCNC(=O)c1cc(F)ccc1Sc1ccc2c(/C=C/c3cnn(CCCN4CCCC4)c3)n[nH]c2c1 [Compound I-104, N-ethyl-5-fluoro-2-({3-[(E)-2-{1-[3-(pyrrolidin-1-yl)propyl]-1H-pyrazol-4-yl}vinyl]-1H-indazol-6-yl}thio)benzamide] |
| 1 to 10 | 6000 to 60000 | ≤ 1 | 0.01 to 0.05 | CNC(=O)c1ccccc1Sc1ccc2c(/C=C/c3ccc(CCN4CCCC4)cn3)n[nH]c2c1 [Compound I-107, N-methyl-2-({3-[(E)-2-{5-[2-(pyrrolidin-1-yl)ethyl]pyridin-2-yl}vinyl]-1H-indazol-6-yl}thio)benzamide] |
| ≤ 1 | 6000 to 60000 | 1 to 5 | > 0.05 | CCN(CC)CCc1ccc(/C=C/c2n[nH]c3cc(Sc4ccc(F)cc4C(=O)NC4CC4)ccc23)nc1 [Compound I-109, N-cyclopropyl-2-({3-[(E)-2-{5-[2-(diethylamino)ethyl]pyridin-2-yl}vinyl]-1H-indazol-6-yl}thio)-5-fluorobenzamide] |
| > 100 | 6000 to 60000 | > 5 | – | CCNC(=O)c1cccc(F)c1Sc1ccc2c(/C=C/c3cccc(CN4CCCC4)n3)n[nH]c2c1 [Compound I-113, N-ethyl-3-fluoro-2-({3-[(E)-2-{6-[(pyrrolidin-1-yl)methyl]pyridin-2-yl}vinyl]-1H-indazol-6-yl}thio)benzamide] |
